Columns and labels:
Btk [1] = molecular target: T1, Btk (Homo sapiens, UniProt Q06187); experiment: Btk in vitro inhibitory activity (Method A, B or C); type: biochemical; design: purified from insect cells as a full-length construct containing a N-terminal 6×-His tag; His6 (N); made in house; host or cells: insect cells (baculovirus, Sf21); conditions: one of the methods of Example 53a, 53b, 53c
Procedure: Btk kinase activity is determined using a time-resolved fluorescence resonance energy transfer (TR-FRET) methodology. Measurements are performed in a reaction volume of 50 μL using 96-well assay plates. Kinase enzyme, inhibitor, ATP (at the Km for the kinase), and 1 μM peptide substrate (Biotin-AVLESEEELYSSARQ-NH2 (SEQ ID NO: 1)) are incubated in a reaction buffer composed of 20 mM Tris, 50 mM NaCl, MgCl2 (5-25 mM depending on the kinase), MnCl2 (0-10 mM), 1 mM DTT, 0.1 mM EDTA, 0.01% bovine serum albumin, 0.005% Tween-20, and 10% DMSO at pH 7.4 for one hour. The reaction is quenched by the addition of 1.2 equivalents of EDTA (relative to divalent cation) in 25 μL of 1× Lance buffer (Perkin-Elmer). Streptavidin-APC (Perkin-Elmer) and Eu-labeled p-Tyr100 antibody (Perkin-Elmer) in 1× Lance buffer are added in a 25 μL volume to give final concentrations of 100 nM and 2.5 nM, respectively, and the mixture is allowed to incubate for one hour. The TR-FRET signal is measured on a multimode plate reader with an excitation wavelength (λEx) of 330 nm and detection wavelengths (λEm) of 615 and 665 nm. Activity is determined by the ratio of the fluorescence at 665 nm to that at 615 nm. For each compound, enzyme activity is measured at various concentrations of compound. Negative control reactions are performed in the absence of inhibitor in replicates of six, and two no-enzyme controls are used to determine baseline fluorescence levels. Inhibition constants, Ki(app), ware obtained using the program BatchKi (Kuzmic et al. (2000), Anal. Biochem. 286:45-50). IC50s are obtained according to the equation: IC50={Ki(app)/1+[ATP]/Km^ATP)}+[E]total/2;
For all kinases, [ATP]=Km^ATP, [Btk]total=0.5 nM and [Lck]total=6 nM.
Kinase activity is measured in vitro using electrophoretic mobility shift assay. The kinase reactions are assembled in a total volume of 25 μL in 384 well plates. The reactions comprise: BTK enzyme (1 nM, N-terminal His6-tagged, recombinant, full-length, human BTK purified from baculovirus Sf21 insect cell system), inhibitor, ATP (16 μM, the apparent Km for the kinase), fluorescently labeled peptide substrate (1 μM, FAM-GEEPLYWSFPAKKK-NH2 (SEQ ID NO: 2)) in a reaction buffer composed of 100 mM HEPES, pH7.5, 5 mM MgCl2 1 mM DTT, 0.1% bovine serum albumin, 0.01% Triton X-100, and 1% DMSO. The reaction is incubated for one hour and is quenched by the addition of 45 μL of termination buffer (100 mM HEPES, pH7.5, 0.01% Triton X-100, 30 mM EDTA). The terminated reactions are analyzed using 12 channel LabChip® 3000 microfluidic detection instrument (Caliper Life Sciences). The enzymatic phosphorylation of the peptide results in a change in net charge, enabling electrophoretic separation of product from substrate peptide. As substrate and product peptides are separated, two peaks of fluorescence are observed. Change in the relative fluorescence intensity of the substrate and product peaks is the parameter measured, reflecting enzyme activity. In the presence of an inhibitor, the ratio between product and substrate is altered: the signal of the product decreases, while the signal of the substrate increases.
Activity in each sample is determined as the product to sum ratio (PSR):P/(S+P), where P is the peak height of the product peptide and S is the peak height of the substrate peptide. For each compound, enzyme activity is measured at various concentrations (12 concentrations of compound spaced by 3× dilution intervals). Negative control samples (0%−inhibition in the absence of inhibitor) and positive control samples (100%−inhibition, in the presence of 20 mM EDTA) are assembled in replicates of four and are used to calculate %−inhibition values for each inhibitor at each concentration. Percent inhibition (Pinh) is determined using following equation: […]

EGFR = EGFR (Homo sapiens, UniProt P00533); experiment: Inhibition of a panel of kinases: EGFR; type: biochemical; conditions: kinase panel, Table 2
EGFR, sequence (P00533 25-1210, species assumed): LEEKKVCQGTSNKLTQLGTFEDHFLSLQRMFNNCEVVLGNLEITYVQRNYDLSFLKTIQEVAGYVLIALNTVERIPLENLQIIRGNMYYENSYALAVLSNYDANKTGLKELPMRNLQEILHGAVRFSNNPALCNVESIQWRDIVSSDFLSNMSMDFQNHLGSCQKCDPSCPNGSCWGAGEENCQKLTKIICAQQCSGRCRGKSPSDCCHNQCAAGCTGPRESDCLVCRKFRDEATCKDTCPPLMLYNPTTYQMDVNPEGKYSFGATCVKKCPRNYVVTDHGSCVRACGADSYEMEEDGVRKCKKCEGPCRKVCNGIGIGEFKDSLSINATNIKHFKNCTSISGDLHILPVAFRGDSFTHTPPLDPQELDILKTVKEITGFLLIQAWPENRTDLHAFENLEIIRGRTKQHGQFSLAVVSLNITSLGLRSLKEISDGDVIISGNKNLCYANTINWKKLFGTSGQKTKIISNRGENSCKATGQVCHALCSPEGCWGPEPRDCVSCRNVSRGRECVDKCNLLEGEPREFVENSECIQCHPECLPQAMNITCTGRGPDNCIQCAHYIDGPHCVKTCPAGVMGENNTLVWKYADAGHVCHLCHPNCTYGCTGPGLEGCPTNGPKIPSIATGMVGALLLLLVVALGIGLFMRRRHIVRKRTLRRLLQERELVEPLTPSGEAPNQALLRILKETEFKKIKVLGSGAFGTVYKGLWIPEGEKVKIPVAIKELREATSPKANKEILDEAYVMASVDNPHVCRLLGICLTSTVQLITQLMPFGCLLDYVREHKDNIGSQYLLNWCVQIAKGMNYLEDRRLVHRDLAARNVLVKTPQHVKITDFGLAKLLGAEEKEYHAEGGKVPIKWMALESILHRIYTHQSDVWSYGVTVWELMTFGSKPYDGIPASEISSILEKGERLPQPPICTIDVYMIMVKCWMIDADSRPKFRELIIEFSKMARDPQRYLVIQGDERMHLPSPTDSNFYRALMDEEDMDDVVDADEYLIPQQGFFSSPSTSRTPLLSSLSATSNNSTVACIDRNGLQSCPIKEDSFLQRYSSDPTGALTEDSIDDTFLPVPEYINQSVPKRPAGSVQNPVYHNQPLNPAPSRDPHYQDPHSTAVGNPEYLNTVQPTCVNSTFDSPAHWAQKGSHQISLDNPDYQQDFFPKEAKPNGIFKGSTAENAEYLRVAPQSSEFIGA
Procedure: (§1) The degree of inhibition of a panel of kinases is determined using assays similar to the kinase assay described in Example 53.

Btk [2] = molecular target: T1, Btk; experiment: Inhibition of a panel of kinases: Btk; type: biochemical; conditions: kinase panel, Table 2
Procedure: as §1

lymphoma cell line DOHH2 = experiment: Lymphoma cell assay (anti-IgG stimulated CD69, FACS); type: cell-based; conditions: DOHH-2; DOHH2 cells stimulated with anti-human IgG F(ab')2 10 μg/mL, 14 to 20 hours; read-out: IC50 (50% decrease in CD69 fluorescence on cell surface)
Procedure: Cells of lymphoma cell line DOHH2 were seeded in 96-well plates in standard growth media (RPMI+10% fetal calf serum). Compounds were added in an 8-point dilution series ranging from 10 to 0.004 μM with DMSO at 0.1% final concentration in all wells. Cells were then stimulated with a F(ab′)2 fragment of anti-human IgG at 10 μg/mL for 14 to 20 hours before staining for FACS analysis. Cells were incubated with fluorescent-labeled anti-CD69 antibody for 30 minutes on ice in FACS buffer and analyzed on the FACSCanto flowcytometry. The IC50, the concentration that results in a 50% decrease in intensity of fluorescence detected on the cell surface, was calculated using the Prizm software to fit the dose-response curve.

LCK = LCK (Homo sapiens, UniProt P06239); experiment: Inhibition of a panel of kinases: LCK; type: biochemical; conditions: kinase panel, Table 2
LCK, sequence (P06239 whole entry, species assumed): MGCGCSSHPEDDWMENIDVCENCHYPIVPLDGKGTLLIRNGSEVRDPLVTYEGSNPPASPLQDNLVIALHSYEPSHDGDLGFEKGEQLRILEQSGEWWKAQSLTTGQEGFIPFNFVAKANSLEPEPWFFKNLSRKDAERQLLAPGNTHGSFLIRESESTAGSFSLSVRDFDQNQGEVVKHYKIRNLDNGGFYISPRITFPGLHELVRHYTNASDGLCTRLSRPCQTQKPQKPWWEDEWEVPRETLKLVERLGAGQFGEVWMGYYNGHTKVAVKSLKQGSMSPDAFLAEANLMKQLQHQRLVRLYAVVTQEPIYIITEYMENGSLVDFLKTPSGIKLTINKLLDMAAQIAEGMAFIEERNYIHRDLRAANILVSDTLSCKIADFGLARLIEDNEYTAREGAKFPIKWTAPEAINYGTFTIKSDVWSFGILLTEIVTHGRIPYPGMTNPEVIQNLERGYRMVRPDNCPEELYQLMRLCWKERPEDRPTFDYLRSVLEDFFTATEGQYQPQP
Procedure: as §1

T1 sequence (Q06187 whole entry): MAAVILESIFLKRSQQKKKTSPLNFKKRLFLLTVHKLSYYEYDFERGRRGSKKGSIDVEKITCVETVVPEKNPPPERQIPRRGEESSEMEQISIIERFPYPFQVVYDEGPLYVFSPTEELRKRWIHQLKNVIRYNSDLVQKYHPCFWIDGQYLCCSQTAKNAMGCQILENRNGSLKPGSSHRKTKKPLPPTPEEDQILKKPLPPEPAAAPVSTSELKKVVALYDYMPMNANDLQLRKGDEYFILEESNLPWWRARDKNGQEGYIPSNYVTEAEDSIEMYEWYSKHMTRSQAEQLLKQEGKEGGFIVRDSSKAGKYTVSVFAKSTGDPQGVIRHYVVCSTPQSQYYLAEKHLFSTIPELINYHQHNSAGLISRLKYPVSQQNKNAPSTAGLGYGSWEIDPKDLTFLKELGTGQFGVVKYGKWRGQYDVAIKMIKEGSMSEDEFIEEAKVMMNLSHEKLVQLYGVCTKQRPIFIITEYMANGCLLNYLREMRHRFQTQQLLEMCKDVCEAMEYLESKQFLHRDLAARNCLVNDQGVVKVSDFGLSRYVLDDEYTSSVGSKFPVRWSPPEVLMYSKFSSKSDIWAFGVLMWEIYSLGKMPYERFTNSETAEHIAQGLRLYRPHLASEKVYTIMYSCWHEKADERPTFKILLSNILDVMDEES

Row | IC50 (Btk [1]) [nM] | IC50 (EGFR) [nM] | IC50 (Btk [2]) [nM] | IC50 (lymphoma cell line DOHH2) [nM] | IC50 (LCK) [nM] | SMILES
1 | ≤ 10 | ≤ 10 | ≤ 10 | < 5 | 10 to 100 | C=CC(=O)N1CC[C@@H](n2nc(-c3ccc(C(=O)Nc4cc(C)ccn4)cc3)c3c(N)ncnc32)C1 [Compound ID 20, (R)-4-(1-(1-acryloylpyrrolidin-3-yl)-4-amino-1H-pyrazolo[3,4-d]pyrimidin-3-yl)-N-(4-methylpyridin-2-yl)benzamide]
2 | ≤ 10 | ≤ 10 | ≤ 10 | < 5 | 10 to 100 | C=CC(=O)N1CC[C@@H](n2nc(-c3ccc(C(=O)Nc4cc(C(F)(F)F)ccn4)cc3)c3c(N)ncnc32)C1 [Compound ID 21, (R)-4-(1-(1-acryloylpyrrolidin-3-yl)-4-amino-1H-pyrazolo[3,4-d]pyrimidin-3-yl)-N-(4-(trifluoromethyl)pyridin-2-yl)benzamide]
3 | ≤ 10 |  |  | < 5 |  | C=CC(=O)N1CC[C@@H](n2nc(-c3ccc(C(=O)Nc4cc(C(C)C)ccn4)cc3)c3c(N)ncnc32)C1 [Compound ID 23, (R)-4-(1-(1-acryloylpyrrolidin-3-yl)-4-amino-1H-pyrazolo[3,4-d]pyrimidin-3-yl)-N-(4-isopropylpyridin-2-yl)benzamide]
4 | ≤ 10 |  |  | < 5 |  | C=CC(=O)N1CCC[C@@H](n2nc(-c3ccc(C(=O)Nc4cc(C)ccn4)cc3)c3c(N)ncnc32)C1 [Compound ID 26, (R)-4-(1-(1-acryloylpiperidin-3-yl)-4-amino-1H-pyrazolo[3,4-d]pyrimidin-3-yl)-N-(4-methylpyridin-2-yl)benzamide]
5 | ≤ 10 |  |  | < 5 |  | C=CC(=O)N1CCC[C@@H](n2nc(-c3ccc(C(=O)Nc4cc(C(F)(F)F)ccn4)cc3)c3c(N)ncnc32)C1 [Compound ID 27, (R)-4-(1-(1-acryloylpiperidin-3-yl)-4-amino-1H-pyrazolo[3,4-d]pyrimidin-3-yl)-N-(4-(trifluoromethyl)pyridin-2-yl)benzamide]
6 | ≤ 10 |  |  | < 5 |  | C=CC(=O)N1CC[C@@H](n2nc(-c3ccc(C(=O)Nc4cc(CCC)ccn4)cc3)c3c(N)ncnc32)C1 [Compound ID 30, (R)-4-(1-(1-acryloylpyrrolidin-3-yl)-4-amino-1H-pyrazolo[3,4-d]pyrimidin-3-yl)-N-(4-propylpyridin-2-yl)benzamide]
7 | ≤ 10 |  |  | < 5 |  | C=CC(=O)N1CCC[C@@H](n2nc(-c3ccc(C(=O)Nc4cc(CCC)ccn4)cc3)c3c(N)ncnc32)C1 [Compound ID 31, (R)-4-(1-(1-acryloylpiperidin-3-yl)-4-amino-1H-pyrazolo[3,4-d]pyrimidin-3-yl)-N-(4-propylpyridin-2-yl)benzamide]

From US9533991B2, “Inhibitors of Bruton's tyrosine kinase” (PHARMACYCLICS LLC, priority 2014, dated 2017)
